We go through one compound from PMC11952508 (bioRxiv, 2025).

Among the targets are CLK3 (Homo sapiens, UniProt P49761); CLK2 (Homo sapiens, UniProt P49760); CLK1 (Homo sapiens, UniProt P49759).
Assay in all cases: in vitro NanoGlo kinase activity assay, n=[…]
Assay type in all cases: biochemical

CLK2, sequence (P49760 whole entry): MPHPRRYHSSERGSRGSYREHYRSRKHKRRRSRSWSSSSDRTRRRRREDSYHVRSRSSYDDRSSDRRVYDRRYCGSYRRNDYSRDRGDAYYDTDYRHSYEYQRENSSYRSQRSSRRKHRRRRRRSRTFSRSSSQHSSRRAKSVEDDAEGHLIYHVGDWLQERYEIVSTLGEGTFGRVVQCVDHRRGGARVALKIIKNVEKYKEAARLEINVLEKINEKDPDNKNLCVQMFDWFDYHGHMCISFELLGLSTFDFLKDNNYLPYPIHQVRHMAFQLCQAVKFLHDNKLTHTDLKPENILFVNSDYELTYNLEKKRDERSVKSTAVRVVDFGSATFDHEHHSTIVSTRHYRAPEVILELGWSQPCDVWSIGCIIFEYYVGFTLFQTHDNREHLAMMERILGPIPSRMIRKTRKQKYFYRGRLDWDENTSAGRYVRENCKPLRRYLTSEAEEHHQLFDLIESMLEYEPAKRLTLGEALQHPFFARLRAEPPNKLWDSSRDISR
CLK3, sequence (P49761 whole entry): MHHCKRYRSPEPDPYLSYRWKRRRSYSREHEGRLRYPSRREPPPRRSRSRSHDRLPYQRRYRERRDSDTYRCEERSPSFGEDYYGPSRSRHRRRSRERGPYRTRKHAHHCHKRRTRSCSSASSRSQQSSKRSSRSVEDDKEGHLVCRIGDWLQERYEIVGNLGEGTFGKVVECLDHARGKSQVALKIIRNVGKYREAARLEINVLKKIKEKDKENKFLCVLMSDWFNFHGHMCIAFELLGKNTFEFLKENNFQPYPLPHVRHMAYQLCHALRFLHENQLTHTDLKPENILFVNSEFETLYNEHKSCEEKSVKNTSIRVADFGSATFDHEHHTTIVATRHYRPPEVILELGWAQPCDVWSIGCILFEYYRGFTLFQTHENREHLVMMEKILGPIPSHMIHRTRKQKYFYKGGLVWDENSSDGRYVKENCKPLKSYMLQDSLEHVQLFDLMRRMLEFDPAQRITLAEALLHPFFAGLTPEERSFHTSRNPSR
CLK1, sequence (P49759 whole entry): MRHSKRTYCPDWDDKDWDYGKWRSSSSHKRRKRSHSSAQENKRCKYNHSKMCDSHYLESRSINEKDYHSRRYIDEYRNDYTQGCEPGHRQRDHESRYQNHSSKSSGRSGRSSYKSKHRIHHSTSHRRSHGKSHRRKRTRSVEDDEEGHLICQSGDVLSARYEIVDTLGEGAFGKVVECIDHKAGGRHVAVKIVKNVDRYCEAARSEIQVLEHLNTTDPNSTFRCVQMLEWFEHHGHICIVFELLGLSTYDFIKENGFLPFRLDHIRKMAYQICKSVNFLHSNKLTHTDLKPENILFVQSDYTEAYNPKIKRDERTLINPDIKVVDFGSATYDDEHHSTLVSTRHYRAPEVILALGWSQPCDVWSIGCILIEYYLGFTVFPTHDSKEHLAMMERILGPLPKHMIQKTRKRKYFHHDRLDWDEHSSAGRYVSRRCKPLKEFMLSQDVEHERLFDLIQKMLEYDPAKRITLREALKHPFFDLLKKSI

With `O=C(Nc1cc(C2CCCC2)n[nH]1)c1ccc2c(c1)[nH]c(=O)n2C1CCCC1` [SR-1815], the half-inhibitory concentration (IC50) against CLK3 came out at 6800 nM; against CLK2, 605 nM; on CLK1 it was 446 nM.
